The values below come from ChEMBL document CHEMBL1131746, “Synthesis of taxoids 5. Synthesis and evaluation of novel water-soluble prodrugs of a 3'-desphenyl-3'-cyclopropyl analogue of docetaxel” (Bioorg Med Chem Lett, 1999).

A short description of data set [1]: Solubility in saline. The data set is classed as physicochemical. To be noted: read-out: S.
The test system of data set [2] is Mus musculus. The data set is described as follows: Antitumor activity was measured as change in body weight on day 10 in mice implanted with B16 melanoma cells at dose of 12.5 mg/kg/day. The data set is classed as functional.
Data set [3] deals with Mus musculus. The data set is described as follows: Compound was evaluated for antitumor activity by iv administration against B16 melanoma implanted sc in mice at dose 12.5 mg/kg/day. The data set is classed as functional.
Another data set concerns OVCAR-3. The experiment in a line: Inhibitory concentration required against OVCAR-3 human ovarian cancer cell line was determined. The data set is classed as functional, cell-based.
A short description of data set [4]: Inhibitory concentration required against Colon320 human colon cancer cell line was determined. As to conditions: cancer cell lines. The data set is classed as functional, cell-based.
A further data set relates to SK-BR-3. The experiment in a line: Inhibitory concentration required against SK-BR-3 human breast cancer cell line was determined. Format: functional, cell-based.
Another data set concerns SK-LU-1. The data set is described as follows: Inhibitory concentration required against SK-LU-1 human lung cancer cell line was determined. Format: functional, cell-based.
A short description of data set [5]: Ratio of IC50 of docetaxel / IC50 against Colon 320 cell line was determined. Format: functional, COLO 320.
Data set [6] in a line: Ratio of IC50 of docetaxel / IC50 against SK-LU-1 cell line was determined. Format: functional.
In data set [7] the test system is Mus musculus. The experiment in a line: Antitumor activity was measured as change in body weight on day 10 in mice implanted with B16 melanoma cells at a dose of 6.3 mg/kg/day. The data set is classed as functional.
Data set [8] in a line: Ratio of IC50 of docetaxel / IC50 against OVCAR-3 cell line was determined. Format: functional.
Data set [9] can be described thus: Ratio of IC50 of docetaxel / IC50 against MKN1 cell line was determined. The data set is classed as functional, MKN-1.
Data set [10] is described as follows: Ratio of IC50 of docetaxel / IC50 against WiDr cell line was determined. Format: functional.
Data set [11] in a line: Inhibitory concentration required against MKN1 human stomach cancer cell line was determined. The data set is classed as functional, cell-based. As to conditions: cancer cell lines.
The subject of another data set is WiDr. The data set is described as follows: Inhibitory concentration required against WiDr human colon cancer cell line was determined. Format: functional, cell-based.
Data set [12] is described as follows: Ratio of IC50 of docetaxel / IC50 against SK-BR-3 cell line was determined. Format: functional.
Data set [13] concerns Mus musculus. The data set is described as follows: Compound was evaluated for antitumor activity by iv administration against B16 melanoma implanted sc in mice at a dose of 6.3 mg/kg/day. The data set is classed as functional.
In data set [14] the test system is Mus musculus. The data set is described as follows: Antitumor activity was measured as change in body weight on day 10 in mice implanted with B16 melanoma cells at dose of 20 mg/kg/day. The data set is classed as functional.
Data set [15] relates to Mus musculus. The data set is described as follows: Compound was evaluated for antitumor activity by iv administration against B16 melanoma implanted sc in mice at dose 20 mg/kg/day. The data set is classed as functional.

≈ marks a conversion by molar mass, not a printed value.

As a reminder, the ILS is the gain in survival time of treated over control animals, in per cent. For `CC(=O)O[C@@]12CO[C@@H]1C[C@H](O)[C@@]1(C)C(=O)[C@H](O)C3=C(C)[C@@H](OC(=O)[C@H](OC(=O)OCOC(=O)C[C@H](N)C(N)=O)[C@@H](NC(=O)OC(C)(C)C)C4CC4)C[C@@](O)([C@@H](OC(=O)c4ccccc4)[C@H]21)C3(C)C`, the solubility in [1] worked out at 5000 µg/mL (≈ 5.21 mM). Also, the Body weight change with Mus musculus [2] is -3.2%. The compound further gave an increase in lifespan (ILS) at 12.5 mg/kg/day with Mus musculus [3] of 227%.
On the same counts, the results for `CC(=O)O[C@@]12CO[C@@H]1C[C@H](O)[C@@]1(C)C(=O)[C@H](O)C3=C(C)[C@@H](OC(=O)[C@H](OC(=O)OCOC(=O)C[C@@H](N)C(N)=O)[C@@H](NC(=O)OC(C)(C)C)C4CC4)C[C@@](O)([C@@H](OC(=O)c4ccccc4)[C@H]21)C3(C)C` are 50000 µg/mL (≈ 52.1 mM), -11.1% and 127%.
Regarding `CC(=O)O[C@@]12CO[C@@H]1C[C@H](O)[C@@]1(C)C(=O)[C@H](O)C3=C(C)[C@@H](OC(=O)[C@H](OC(=O)OCOC(=O)C[C@H](N)C(=O)O)[C@@H](NC(=O)OC(C)(C)C)C4CC4)C[C@@](O)([C@@H](OC(=O)c4ccccc4)[C@H]21)C3(C)C`, the solubility in [1] was determined as 1000 µg/mL (≈ 1.04 mM). For the same compound, in the data set on Mus musculus [2], the Body weight change is 3.3%. In the data set with Mus musculus [3], the ILS at 12.5 mg/kg/day was found to be 212%.
Taken in the same sequence, the figures for `CNC(=O)[C@@H](N)CC(=O)OCOC(=O)O[C@@H](C(=O)O[C@H]1C[C@@]2(O)[C@@H](OC(=O)c3ccccc3)[C@@H]3[C@]4(OC(C)=O)CO[C@@H]4C[C@H](O)[C@@]3(C)C(=O)[C@H](O)C(=C1C)C2(C)C)[C@@H](NC(=O)OC(C)(C)C)C1CC1` were 10000 µg/mL (≈ 10.3 mM), -0.5% and 185%.
On the same counts, the results for `CCOC(=O)[C@@H](N)CC(=O)OCOC(=O)O[C@@H](C(=O)O[C@H]1C[C@@]2(O)[C@@H](OC(=O)c3ccccc3)[C@@H]3[C@]4(OC(C)=O)CO[C@@H]4C[C@H](O)[C@@]3(C)C(=O)[C@H](O)C(=C1C)C2(C)C)[C@@H](NC(=O)OC(C)(C)C)C1CC1` are 10000 µg/mL (≈ 10.1 mM), -2.9% and 213%.
As usually defined, the IC50 is the concentration needed to halve the response being measured. The low end stands for higher potency, the high end for lower potency. With `CC(=O)O[C@@]12CO[C@@H]1C[C@H](O)[C@@]1(C)C(=O)[C@H](O)C3=C(C)[C@@H](OC(=O)[C@H](O)[C@@H](NC(=O)OC(C)(C)C)C4CC4)C[C@@](O)([C@@H](OC(=O)c4ccccc4)[C@H]21)C3(C)C`, the IC50 in the data set on OVCAR-3 is 0.52 nM; in [4], 0.21 nM; in the data set on SK-BR-3 it was 1.1 nM; in the data set with SK-LU-1, 1 nM; in data set [11], 1.2 nM; in the data set on WiDr it was 0.027 nM. Moreover, the Ratio in [5] is reported as 23; in data set [6], 1.8; in [8], 2.3; in [9], 1.4; in data set [10] it was 16; in data set [12], 4.3. The Body weight change in the data set on Mus musculus [7] was -7.5%. Moreover, in the data set with Mus musculus [13], the increase in lifespan (ILS) at 6.3 mg/kg/day was 187%.
Consider `CC(=O)O[C@@]12CO[C@@H]1C[C@H](O)[C@@]1(C)C(=O)[C@H](O)C3=C(C)[C@@H](OC(=O)[C@H](O)[C@@H](NC(=O)OC(C)(C)C)c4ccccc4)C[C@@](O)([C@@H](OC(=O)c4ccccc4)[C@H]21)C3(C)C.O.O.O` [DOCETAXEL], for which the IC50 in the data set on OVCAR-3 stood at 1.2 nM; in data set [4], 4.8 nM; in the data set on SK-BR-3, 4.7 nM; with SK-LU-1, 1.8 nM; in [11], 1.7 nM; in the data set with WiDr, 0.43 nM. The Body weight change with Mus musculus [14] is -13%. This compound also yielded an ILS at 20 mg/kg/day with Mus musculus [15] of 149%.
